From patent US7576102B2, “Biaryl substituted nitrogen containing heterocycle inhibitors of LTA4H for treating inflammation” (deCODE genetics ehf, priority 2005, dated 2009)
Where a name gives a salt, the structure may show the parent alone.

Legend:
human LTA4 hydrolase = biological target: T1, human LTA4 hydrolase (Homo sapiens, UniProt P09960); assay: In vitro assay testing inhibitory activity against purified recombinant human LTA4 hydrolase; assay type: biochemical; settings: 200 nM recombinant enzyme, 2 μM LTA4, LTB4 by LC-MS/MS; read-out: IC50(μM) (hLTA4H)
T1 construct: A human LTA4 hydrolase full-length cDNA clone (NM_000895) was purchased from OriGene Technologies; made in house; host or cells: Escherichia coli BL21-AI
T1 sequence (P09960 1-611): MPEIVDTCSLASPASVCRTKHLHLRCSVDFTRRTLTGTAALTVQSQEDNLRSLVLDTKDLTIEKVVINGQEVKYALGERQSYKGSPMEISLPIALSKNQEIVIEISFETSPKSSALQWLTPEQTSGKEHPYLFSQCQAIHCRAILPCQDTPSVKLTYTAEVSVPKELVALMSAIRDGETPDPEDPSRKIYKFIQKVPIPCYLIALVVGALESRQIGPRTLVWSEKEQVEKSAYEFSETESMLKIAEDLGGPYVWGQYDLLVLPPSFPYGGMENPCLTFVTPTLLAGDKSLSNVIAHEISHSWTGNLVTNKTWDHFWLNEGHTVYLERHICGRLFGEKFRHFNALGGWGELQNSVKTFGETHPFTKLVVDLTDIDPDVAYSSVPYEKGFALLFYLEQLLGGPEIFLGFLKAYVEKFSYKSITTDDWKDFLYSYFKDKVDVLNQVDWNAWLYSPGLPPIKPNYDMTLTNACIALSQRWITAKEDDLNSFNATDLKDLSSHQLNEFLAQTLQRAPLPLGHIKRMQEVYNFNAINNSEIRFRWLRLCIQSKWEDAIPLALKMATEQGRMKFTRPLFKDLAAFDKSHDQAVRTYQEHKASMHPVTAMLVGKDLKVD
Text: (1) In vitro Assay Testing Inhibitory Activity Against Purified Recombinant Human LTA4 Hydroase:
A human LTA4 hydrolase full-length cDNA clone (NM_000895) was purchased from OriGene Technologies (Rockville, Md.). The gene was amplified by polmerase chain reaction and transferred via pDONR201 into the bacterial expression vector pDEST17 by recombination (both plasmids from Invitrogen, Carlsbad, Calif.). The resulting construct was transformed into Escherichia coli BL21-AI (Invitrogen), and expression was induced by chemical induction with arabinose. The recombinant enzyme was purified by chromatography on a FPLC system (Amersham Biosciences, Uppsala, Sweden) using immobilized metal affinity chromatography (Ni-NTA Superflow, Qiagen, Hilden, Germany) and anion exchange chromatography (MonoQ HR 10/10, Amersham Biosciences).
The compounds of the invention were incubated in a series of dilutions with 200 nM of recombinant enzyme in assay buffer (100 mM Tris-HCl, 100 mM NaCl, 5 mg/ml fatty-acid free BSA, 10% DMSO, pH 8.0) for 10 min at room temperature to allow binding between LTA4 hydrolase and the inhibitors. LTA4 was prepared by alkaline hydrolysis of LTA4 methyl ester (Biomol, Plymouth Meeting, Pa., or Cayman Chemicals, Ann Arbor, Mich.). A solution of 10 μg of the ester was dried under a nitrogen stream and redissolved in 60 μl of a solution of 80% aceton and 20% 0.25 M NaOH. After incubation for 40 min at room temperature the resulting approximately 500 μM tock of LTA4 was kept at −80° C. for no more than a few days prior to use.
Immediately before the assay, LTA4 was diluted to a concentration of 10 μM in assay buffer (without DMSO) and added to the reaction mixture to a final concentration of 2 μM to initiate the enzyme reaction. After incubation for 120 sec at room temperature, the reaction was stopped by adding 2 volumes of chilled quenching buffer, containing acetonitrile with 1% acetic acid and 225 nM LTB4-d4 (Biomol). The samples were then kept at 4° C. over night to complete protein precipitation and centrifuged for 15 min at 1800 g. LTB4 formed was measured by LC-MS/MS using LTB4-d4 as an internal standard and an external LTB4 standard (Biomol) as reference. Briefly, the analyte was separated from LTB4 isomers formed by spontaneous hydrolysis of LTA4 using isocratic elution (modified protocol from Mueller et al. (1996), J. Biol. Chem. 271, 24345-24348) on a HPLC system (Waters, Milford, Mass.) and analyzed on a tandem quadrupole mass spectrometer (Waters). MRM transitions followed on 2 channels were 335.2>195.3 (LTB4) and 339.2>197.3 (LTB4-d4). Based on the amounts of LTB4 found at each inhibitor concentration, a dose-response curve was fitted to the data and an IC50 value was calculated.

[1] = system: LTB4 in human whole blood; assay: Ex vivo assay testing inhibitory activity in human whole blood after stimulation with calcium ionophore (LTB4 by immunoassay); assay type: cell-based; settings: 20 μM ionomycin, read-out: IC50(μM) (hWB)
Experimental: (2) Ex vivo Assay Testing Inhibitory Activity in Human Whole Blood After Stimulation with Calcium Ionophor: Human blood was collected in heparin-containing Vacutainer tubes. For each sample, 200 μl of blood were dispensed into a pre-warmed plate and 188 μl of RPMI-1640 medium (Invitrogen) containing 20 μg/ml Indomethacin (Sigma, St. Louis, Mo.) were added. Then 4 μl of a series of compound dilutions (in DMSO) were added, followed by a 15 min incubation at 37° C. with gentle shaking. After that, blood samples were stimulated by adding lonomycin (Calbiochem) to a final concentration of 20 μM. After another incubation at 37° C. for 30 min, samples were centrifuged for 5 min at 1800 g and 4° C. Supernatants were taken and LTB4 concentrations were determined using a commercially available enzyme-linked immunoassay (R&D Systems, Minneapolis, Minn.) according to the manufacturer's instructions. Results obtained for different concentrations of hydrolase inhibitor were then used to fit a dose-response curve and calculate an IC50 value.

colitis symptoms = settings: eight weeks of treatment; cited from earlier work
[2] = system: ionophore-induced LTB4 production; settings: oral administration; cited from earlier work
[3] = system: ionophore-induced LTB4 production; settings: oral administration; cited from earlier work; remark: listed apart in the source

| IC50 (human LTA4 hydrolase) | Compound | also measured |
| --- | --- | --- |
| < 5 µM | c1ccc(Oc2ccc(OC3CCNCC3)cc2)cc1 [Example 3, 4-(4-Phenoxy-phenoxy)-piperidine hydrochloride salt] | IC50 [1]: < 5 µM |
| < 5 µM | O=C(O)CCCN1CC[C@@H](Oc2ccc(Oc3ccc(Cl)cc3)cc2)C1 [Example 14, 4-{(R)-3-[4-(4-Chloro-phenoxy)-phenoxy]-pyrrolidin-1-yl}-butyric acid HCl] |  |
| < 5 µM | O=C(O)CCN1CCC(Oc2ccc(Oc3ccccc3)cc2)CC1 [Example 5, 3-[4-(4-Phenoxy-phenoxy)-piperidin-1-yl]-propionic acid] |  |
| < 5 µM | c1ccc(Oc2ccc(O[C@@H]3CCNC3)cc2)cc1 [Example 11, (R)-3-(4-Phenoxy-phenoxy)-pyrrolidine hydrochloride] |  |
| < 5 µM | O=C(O)CCCN1CCC(Oc2ccc(Oc3ccccc3)cc2)CC1 [Example 6, 4-[4-(4-Phenoxy-phenoxy)-piperidin-1-yl]-butyric acid hydrochloride salt] |  |
| < 5 µM | O=C(O)CCCN1CC[C@@H](Oc2ccc(Oc3ccccc3)cc2)C1 [Example 12, 4-[(R)-3-(4-Phenoxy-phenoxy)-pyrrolidin-1-yl]-butyric acid hydrogen chloride] |  |
| < 5 µM | c1ccc(-c2ccc(Oc3ccc(OC4CCNCC4)cc3)cc2)cc1 [Example 8, 4-[4-(Biphenyl-4-yloxy)-phenoxy]-piperidine hydrochloride salt] | IC50 [1]: < 5 µM |
| < 5 µM | c1ccc(Cc2ccc(O[C@@H]3CCNC3)cc2)cc1 [Example 2, (R) 3-(4-Benzyl-phenoxy)-pyrrolidine hydrochloride salt] | IC50 [1]: < 5 µM |
| 5 to 20 µM | FC(F)(F)Oc1ccc(Oc2ccc(OC3CCNCC3)cc2)cc1 [Example 9, 4-[4-(4-Trifluoromethoxy-phenoxy)-phenoxy]-piperidine hydrochloride] |  |
| < 5 µM | FC(F)(F)c1ccc(Oc2ccc(OC3CCNCC3)cc2)cc1 [Example 7, 4-[4-(4-Trifluoromethyl-phenoxy)-phenoxy]-piperidine hydrochloride salt] |  |
| < 5 µM | NC(=O)CCCN1CC[C@@H](Oc2ccc(Oc3ccccc3)cc2)C1 [Example 13, 4-[(R)-3-(4-Phenoxy-phenoxy)-pyrrolidin-1-yl]-butyramide] |  |
| < 5 µM | c1ccc(Cc2ccc(O[C@H]3CCNC3)cc2)cc1 [Example 1, (S) 3-(4-Benzyl-phenoxy)-pyrrolidine hydrochloride salt] | IC50 [1]: < 5 µM |
| < 5 µM | Clc1ccc(Oc2ccc(OC3CCNCC3)cc2)cc1 [Example 10, 4-[4-(4-Chloro-phenoxy)-phenoxy]-piperidine hydrochloride] |  |
| < 5 µM | O=C(O)CCCN1CC[C@@H](Oc2ccc(Cc3ccccc3)cc2)C1 [Example 4, 4-[(R)-3-(4-Benzyl-phenoxy)-pyrrolidin-1-yl]-butyric acid hydrochloride salt] |  |
|  | CN(CCCOc1ccc(Cc2ccccc2)cc1)CCC(=O)O.Cl [SC57461] | colitis symptoms in a primate model (colitis symptoms): significantly improved colitis symptoms; inhibition of ionophore-induced LTB4 production in rat peritoneum in vivo [2]: inhibition of ionophore-induced LTB4 production; inhibition of ionophore-induced LTB4 production in mouse blood ex vivo [3]: inhibition of ionophore-induced LTB4 production |
